Laboratory results reported in article PMC8878468, “Image-Based Annotation of Chemogenomic Libraries for Phenotypic Screening” (Molecules, 2022).
Read-outs that look alike come from different tables or passages of the source. Blank lines part the entries; values can stand above or below the compound they belong to.

Legend:
[1] = system: U2OS cells; assay: cells; details: Homo sapiens
[2] = system: HCT116-FUCCI cells; assay: FUCCI cell cycle assay with nuclear gating; format: cell-based, human; details: for change of FUCCI nuclei population in comparison to DMSO / main nuclei color: 10 µM; for change of FUCCI nuclei population in comparison to DMSO: up to 70 h; for main nuclei color: Table S3; for IC50: Homo sapiens, average and SEM of two independent experiments
Method: For generation of a stable cell line, including the florescent ubiquitination-base cell cycle indicator FUCCI, the plasmid-based transposon system Sleeping Beauty was used. Vector (pSBbi_Fucci) and the Transposase SB100X have been described previously. […] Two days after transfection, cells were selected over 10 days using puromycin (1 µg/mL) and cultivated afterwards for two more weeks in McCoys 5A plus L-Glutamine (Gibco) supplemented by 10% FBS (Gibco) and Penicillin/Streptomycin (Gibco).
Fluorescence and cellular shape were measured before and after compound treatment for 72 h every 12 h using the CQ1 high-content confocal microscope (Yokogawa). […]
Image analysis was performed using the CellPathfinder software (Yokogawa). Segmentation of cells was performed as described earlier. First, the cells are classified in Hoechst High Intensity Objects or Normal Intensity Objects (Supplementary Table S7). All normal gated cells are further classified in healthy, fragmented or pyknosed nuclei (Supplementary Table S7). […] Total cell count was normalized against total cell count of cells treated with 0.1% DMSO.

[3] = system: HCT116-FUCCI cells; design: method as in per compound as in column reference of Table S3; details: literature annotation in Table S3; ref per compound as in Table S3; cited from earlier work
[4] = system: U2OS cells; assay: Multiplex high-content protocol (nuclei gating, tubulin, mitochondrial mass, membrane permeability); format: cell-based, human; details: for Hoechst High Intensity Objects: after 24 h, in one of two biological replicates; for marked for tubulin effects while crossing no other phenotypic threshold / mitochondrial mass increase detected: threshold > 50%
Method: Using the CQ1 high-content confocal microscope (Yokogawa), cellular shape and fluorescence was measured before and 12 h as well as 24 h after compound treatment. All compounds were diluted in DMSO to a concentration of 10 mM.
The rather large spacing distance was used to create a robust readout, compensating potential plate variations and enabling automated screening without the use of autofocus. The overlap of the fluorescence emission spectra of the dyes was neglectable for all but the MitoTracker Red and Annexin V Alexa Fluor 680 (Supplementary Figure S9).
All images were analyzed using the CellPathfinder software (Yokogawa). Segmentation of cells was performed as described earlier. First, the cells are classified in Hoechst High Intensity Objects or Normal Intensity Objects (Supplementary Table S7). All normal gated cells are further classified in healthy, fragmented or pyknosed nuclei (Supplementary Table S7). The pyknosed cells are gated in mitotic or apoptotic cells using seven features for the cell body and five features for the cell nuclei according to their Annexin V staining intensity (Supplementary Table S7). All cells that were classified as including a healthy nucleus are further gated into three phenotypic classes. […] Growth rate was calculated against non-treated cells and cells treated with DMSO 0.1% [61].

[5] = U2OS, 10 µM, 24 h, healthy nuclei only

SMILES: O=C(CCCCCCNC(=O)c1cnc(N(c2ccccc2)c2ccccc2)nc1)NO [ricolinostat]
IC50 ([1]; 26 h, read-out: IC 50 26 h): 13500 nM
IC50 ([1]; 42 h, read-out: IC 50 42 h): 13400 nM
IC50 ([1]; 56 h, read-out: IC 50 56 h): 13700 nM

SMILES: COc1cccc2c1C(=O)c1c(O)c3c(c(O)c1C2=O)C[C@@](O)(C(=O)CO)C[C@@H]3O[C@H]1C[C@H](N)[C@H](O)[C@H](C)O1 [doxorubicin]
change of FUCCI nuclei population in comparison to DMSO [2]: More yellow nuclei
known cell cycle effect [3]: G0/G1 cell cycle arrest

SMILES: CC[C@@]1(O)C(=O)OCc2c1cc1n(c2=O)Cc2cc3ccccc3nc2-1 [camptothecin]
change of FUCCI nuclei population in comparison to DMSO [2]: increase in green nuclei
IC50 ([1]; 14 h, read-out: IC 50 14 h): 2600 nM
IC50 ([1]; 14 h, read-out: IC50, normalized healthy cell count): 4700 nM
IC50 ([1]; 14 h, read-out: IC50, normalized healthy nuclear count): 6100 nM
IC50 ([1]; 26 h, read-out: IC 50 26 h): 2300 nM
IC50 ([1]; 28 h, read-out: IC50, normalized healthy cell count): 1800 nM
IC50 ([1]; 28 h, read-out: IC50, normalized healthy nuclear count): 1700 nM
IC50 ([1]; 42 h, read-out: IC 50 42 h): 1500 nM
IC50 ([1]; 42 h, read-out: IC50, normalized healthy cell count): 290 nM
IC50 ([1]; 42 h, read-out: IC50, normalized healthy nuclear count): 438 nM
IC50 ([1]; 56 h, read-out: IC 50 56 h): 1100 nM
IC50 ([1]; 56 h, read-out: IC50, normalized healthy cell count): 50.9 nM
IC50 ([1]; 56 h, read-out: IC50, normalized healthy nuclear count): 43.4 nM
known cell cycle effect [3]: mitotic arrest
Hoechst High Intensity Objects (Hoechst intensity compared to normal nuclei) ([4]; U2OS, 1 µM): more than 50%
healthy nuclei (healthy cells) ([4]; U2OS, 10 µM, 24 h): less than 50%
Hoechst High Intensity Objects ([4]; U2OS, 10 µM): > 30%

SMILES: CC(=O)Nc1cccc(-n2c(=O)n(C3CC3)c(=O)c3c(Nc4ccc(I)cc4F)n(C)c(=O)c(C)c32)c1 [trametinib]
change of FUCCI nuclei population in comparison to DMSO [2]: increase in red nuclei

IC50 ([1]; 14 h, read-out: IC 50 14 h): 62.7 nM
IC50 ([1]; 26 h, read-out: IC 50 26 h): 64.1 nM
IC50 ([1]; 42 h, read-out: IC 50 42 h): 58.7 nM
IC50 ([1]; 56 h, read-out: IC 50 56 h): 56.5 nM
SMILES: CNCc1ccc(-c2cc(-c3nc(-c4ccc(S(=O)(=O)C(C)C)cc4)cnc3N)on2)cc1 [berzosertib]
Hoechst High Intensity Objects (Hoechst intensity compared to normal nuclei) ([4]; U2OS, 1 µM): more than 50%

SMILES: CCOC(=O)Nc1cc(-c2ccc(C)c(NS(C)(=O)=O)c2)nn2c(C)nnc12 [Bromosporine]
known cell cycle effect [3]: increase of cells in G1
marked for tubulin effects while crossing no other phenotypic threshold ([4]; U2OS, 1 µM): marked to have tubulin effects

SMILES: CN1CCN(C(=O)C(C)(C)c2ccc(C(=O)Nc3cn4cc(-c5ccncc5)ccc4n3)cc2)CC1 [T3-CLK]
main nuclei color [2]: green
known cell cycle effect [3]: G2/M cell cycle arrest

SMILES: COc1cccc2c1C(=O)c1c(O)c3c(c(O)c1C2=O)C[C@@](O)(C(C)=O)C[C@@H]3O[C@H]1C[C@H](N)[C@H](O)[C@H](C)O1 [daunorubicin]
change of FUCCI nuclei population in comparison to DMSO [2]: More yellow nuclei
known cell cycle effect [3]: breaks, cell cycle arrest
healthy nuclei (healthy cells) ([4]; U2OS, 10 µM, 24 h): less than 50%

SMILES: COc1ccc(C[C@H](N)C(=O)N[C@H]2[C@@H](O)[C@H](n3cnc4c(N(C)C)ncnc43)O[C@@H]2CO)cc1 [puromycin]
known cell cycle effect [3]: effect on cell cycle
mitochondrial mass, first analysis gating all cells independently of viability ([4]; 10 µM): increased mitochondrial mass
tubulin effect, first analysis gating all cells independently of viability ([4]; 10 µM): tubulin effects
healthy nuclei (healthy cells) ([4]; U2OS, 10 µM, 24 h): less than 50%

SMILES: N#Cc1c2nc3ccccc3nc2n2ccc(NC(=O)c3cccs3)cc12 [HI-TOPK-032]
main nuclei color [2]: yellow
change of FUCCI nuclei population in comparison to DMSO [2]: increased number of cells with yellow nuclei
known cell cycle effect [3]: during mitosis, G1 cell

SMILES: CC[C@@]1(O)C(=O)OCc2c1cc1n(c2=O)Cc2cc3c(CN(C)C)c(O)ccc3nc2-1 [topotecan]
change of FUCCI nuclei population in comparison to DMSO [2]: increase in green nuclei
mitochondrial mass increase detected ([4]; U2OS, 1 µM): mitochondrial mass increase
healthy nuclei (healthy cells) ([4]; U2OS, 10 µM, 24 h): less than 50%
Hoechst High Intensity Objects ([4]; U2OS, 10 µM): > 30%

SMILES: CN[C@@H]1C[C@H]2O[C@@](C)([C@@H]1OC)n1c3ccccc3c3c4c(c5c6ccccc6n2c5c31)C(=O)NC4 [staurosporine]
known cell cycle effect [3]: dose-dependent cell
mitochondrial mass, first analysis gating all cells independently of viability ([4]; 10 µM): increased mitochondrial mass
tubulin effect, first analysis gating all cells independently of viability ([4]; 10 µM): tubulin effects
healthy nuclei (healthy cells) ([4]; U2OS, 10 µM, 24 h): less than 50%

SMILES: C[C@@H]1CC[C@@]2(OC1)O[C@H]1[C@@H](O)[C@H]3[C@@H]4CC[C@H]5C[C@@H](O[C@@H]6O[C@H](CO)[C@H](O[C@@H]7O[C@H](CO)[C@@H](O)[C@H](O[C@@H]8OC[C@@H](O)[C@H](O)[C@H]8O)[C@H]7O[C@@H]7O[C@H](CO)[C@H](O)[C@H](O[C@@H]8O[C@H](CO)[C@@H](O)[C@H](O)[C@H]8O)[C@H]7O)[C@H](O)[C@H]6O)[C@H](O)C[C@]5(C)[C@H]4CC[C@]3(C)[C@H]1[C@@H]2C [digitonin]
IC50 ([1]; 14 h, read-out: IC 50 14 h): 10600 nM
IC50 ([1]; 26 h, read-out: IC 50 26 h): 11600 nM
IC50 ([1]; 42 h, read-out: IC 50 42 h): 11500 nM
IC50 ([1]; 56 h, read-out: IC 50 56 h): 15100 nM
healthy nuclei (healthy cells) ([4]; U2OS, 10 µM, 24 h): more than 50%

SMILES: O=c1cc(-c2ccccc2)oc2c1ccc1ccccc12 [α-naphthoflavone]
change of FUCCI nuclei population in comparison to DMSO [2]: increase in red nuclei
known cell cycle effect [3]: G1 cell cy cle arrest

SMILES: Cc1[nH]c2ccccc2c1CCNCc1ccc(/C=C/C(=O)NO)cc1 [Panobinostat]
known cell cycle effect [3]: G 1/S cell cy cle arrest

SMILES: COc1cc(Nc2ccnc3ccc(Br)cc23)cc(OC)c1OC [SGC-GAK-1]
mitochondrial mass increase detected ([4]; U2OS, 1 µM): mitochondrial mass increase

SMILES: O=C1c2c(O)ccc(O)c2C(=O)c2c(NCCNCCO)ccc(NCCNCCO)c21 [mitoxantrone]
change of FUCCI nuclei population in comparison to DMSO [2]: increase in green nuclei
known cell cycle effect [3]: delay in cell cycle

SMILES: CCOC(=O)c1c(C)[nH]c2ccc3c(c12)CN1CCc2cc(OC)ccc2C1O3 (centres unmarked) [PD 102807]
mitochondrial mass increase detected ([4]; U2OS, 1 µM): mitochondrial mass increase

SMILES: CN1CCN(Cc2cc(NC(=O)c3ccc4c(c3)CN(c3ccccc3)CC4)cc(C(F)(F)F)c2)CC1 [DDR-TRK-1N]
healthy nuclei ([4]; U2OS, 1 µM, 24 h): ≤ 40%

SMILES: Cc1ccc(NC(=O)Nc2cc(C(F)(F)F)ccc2F)cc1Nc1ccc2c(c1)NC(=O)/C2=C\c1ccc[nH]1 [GNF-5837]
viability at 1 µM ([4]; Homo sapiens, U2OS, 1 µM, 24 h, read-out: healthy nuclei): ≤ 40%
decrease of healthy nuclei count ([4]; U2OS, 1 µM): more than 60%

SMILES: COc1cc2ncnc(Nc3ccc(F)c(Cl)c3)c2cc1NC(=O)/C=C/CN1CCCCC1 [PF-299804]
membrane permeabilization effects ([4]; U2OS, 1 µM, 24 h): more than 65%
marked for tubulin effects while crossing no other phenotypic threshold ([4]; U2OS, 1 µM): marked to have tubulin effects

IC50 ([1]; 14 h, read-out: IC 50 14 h): > 2000 nM
IC50 ([1]; 26 h, read-out: IC 50 26 h): 100 nM
IC50 ([1]; 42 h, read-out: IC 50 42 h): 60 nM
IC50 ([1]; 56 h, read-out: IC 50 56 h): 50 nM
SMILES: CC(=O)O[C@H]1C(=O)[C@@]2(C)[C@H]([C@H](OC(=O)c3ccccc3)[C@]3(O)C[C@H](OC(=O)[C@H](O)[C@@H](NC(=O)c4ccccc4)c4ccccc4)C(C)=C1C3(C)C)[C@]1(OC(C)=O)CO[C@@H]1C[C@@H]2O [paclitaxel]
change of FUCCI nuclei population in comparison to DMSO [2]: increase in red nuclei
known cell cycle effect [3]: concentration-dependent

SMILES: CCn1cc(-c2ccnc3[nH]c(-c4cccc(CN(C)C)c4)cc23)c(-c2ccc(NC(=O)N(C)C)cc2)n1 [GSK1070916]
mitochondrial mass increase detected ([4]; U2OS, 1 µM): mitochondrial mass increase

IC50 ([1]; 14 h, read-out: IC 50 14 h): 2100 nM
IC50 ([1]; 26 h, read-out: IC 50 26 h): 800 nM
IC50 ([1]; 42 h, read-out: IC 50 42 h): 600 nM
IC50 ([1]; 56 h, read-out: IC 50 56 h): 500 nM
SMILES: CNC(=O)c1nn(C)c2c1C(C)(C)Cc1cnc(Nc3ccc(N4CCN(C)CC4)cc3)nc1-2 [milciclib]
cell cycle population distribution of healthy gated nuclei ([2]; 1 µM, after 18 h, versus DMSO): higher population of ‘red’ nuclei
IC50 ([2]; 18h, read-out: IC50(18h), normalized healthy cell count): 5990 ± 260 nM
IC50 ([2]; 32h, read-out: IC50(32h), normalized healthy cell count): 1990 ± 350 nM
IC50 ([2]; 45h, read-out: IC50(45h), normalized healthy cell count): 850 ± 90 nM
IC50 ([2]; 59h, read-out: IC50(59h), normalized healthy cell count): 570 ± 50 nM
known cell cycle effect [3]: G1 cell cy cle arrest
increase in mitochondrial mass in comparison to DMSO [4, 5]: over 60%

SMILES: CS(=O)(=O)N1CCCC(NC(=O)[C@H](CCC2CCCCC2)NC(=O)c2ccc(CNC(=O)c3cnc4ccccn34)cc2)C1 (some centres unmarked) [SR-302]
tubulin effect [4, 5]: more than 90%
